The record followed here is patent US20220313651A1, “INHIBITORS OF ZIKA VIRUS INFECTION” (priority 2019, published 2022).

The IC50 is the midpoint of a concentration-inhibition curve. By CC50 is commonly meant the concentration giving 50% cytotoxicity. A lower CC50 goes with greater toxicity to the cells. Usually EC50 stands for the midpoint of the concentration-response curve.

For series [1], the system named is ZIKV human strain PAN2016 (2016/Panama). Briefly: Plaque reduction inhibition assay in Vero E6 cells, ZIKV PAN2016. It counts as cell-based, Zika virus (ZIKV). How it is done:
A plaque reduction inhibition assay was carried out to measure the inhibitory activity of Z-medicaments against infections of ZIKV and DENV. […] The compound-virus mixtures were then transferred to Vero E6 cells (10^5/well) and incubated at 37° C. for 1 h.

Series [2] concerns the target T1, ZIKV EDIII protein (E residues 298-409) (Zika virus, UniProt Q32ZE1, D679E/I627V/V603I/V629A).
T1 construct: human Fc (C)
It counts as binding. To be noted: ELISA. How it is done:
Binding of compounds (NPs) to ZIKV full-length E (FIG. 3A), EDIII (FIG. 3B), and NS2B-NS3 (FIG. 3C) proteins, was detected by ELISA. The percent binding was reported in the presence or absence of serially diluted NPs using the formula (1-[E/EDIII-NP]/[E/EDIII])×100 (for E/EDIII binding) or (1-[NS2B-NS3-NP]/[NS2B-NS3])×100 (for NSEB-NS3 binding). […] The concentrations of ZIKV EDIII and mAbs were 1.5 and 0.5 μg/ml, respectively. […] The concentrations of substrate (Bz-Nle-Lys-Lys-Arg-AMC) and ZIKV NS2B-NS3 protein were 4 μM and 1 μg/ml, respectively. The percent inhibition of protease activity was calculated in the presence or absence of serially diluted compounds using the formula (1-[NS2B-NS3-substrate-NP]/[NS2B-NS3-substrate])×100. The IC50 values were calculated based on the percent inhibition. The data are expressed as mean±s.e.m. (n=4).
The data are expressed as mean±s.e.m. (n=4), and DMSO was used as negative control. Surface plasmon resonance (SPR) analysis of the binding between ST087010 and ZIKV EDIII (FIG. 6D) or NS2B-NS3 (FIG. 6E) protein was performed. Binding affinity was shown as KD (equilibrium dissociation constant).
The binding between the Z-medicament and ZIKV full-length E protein, EDIII protein (E residues 298-409 fused with a C-terminal human Fc), or NS2B-NS3 protease was carried out by ELISA. Briefly, ELISA plates were pre-coated with the proteins described above at 4° C. overnight, and blocked with 2% fat-free milk at 37° C. for 2 h. Serial dilutions of the Z-medicament or DMSO (control) were then added to the plates and incubated at 37° C. for 2 h. The plates were washed with PBS containing Tween-20 (PBST), and incubated at 37° C. for 1 h with ZIKV EDIII-specific human mAb ZKA64-LALA (0.5 μg/ml) (for binding to ZIKV full-length E and EDIII proteins), or mouse sera specific to ZIKV NS2B-NS3 (for binding to NS2B-NS3 protease). The plates were washed with PBST, and incubated with horseradish peroxidase (HRP)-conjugated anti-human IgG-Fab (1:3000) or anti-mouse IgG (1:3000) antibody at 37° C. for 1 h. The 3,3′,5,5′-tetramethylbenzidine (TMB) substrate was added to the plates, and the reaction was stopped by 1 N H2SO4. Absorbance at 450 nm (A450 value) was measured by ELISA microplate reader.
Briefly, ELISA plates were coated with each protein (1 μg/ml) at 4° C. overnight, and were then incubated with blocking buffer containing 2% fat-free milk in PBST at 37° C. for 2 h. The above compounds, or DMSO control, at serial dilutions were added to the plates, and incubated at 37° C. for 2 h. […] Absorbance at 450 nm (A450 values) was measured by an ELISA microplate reader. EC50 values were calculated.
(In general: An ELISA detects its analyte on a solid surface through an enzyme-linked reagent.)

Series [3] has as its system LLC-MK2 cells. How it is done: The cytotoxicity of Z-medicaments in LLC-MK2 (DENV-1-4 target cells) was detected using Cell Counting Kit-8 (CCK8). […] The cells were then incubated with CCK8 solution, and measured absorbance at 450 nm (A450 value) using a microplate reader.
Briefly, compounds at 2-fold serial dilutions were added to cells (2.0×10^4/well) pre-seeded in 96-well plates. The cells were cultured at 37° C. for 3 days, and incubated with CCK8 solution, followed by measurement of absorbance at 450 nm (A450 value) using microplate reader.

[4] abbreviates: Zika virus, Vero C1008, Vero E6 cells, Table 1, read-out: IC50 against ZIKV strain PAN2016.

Where two headings read alike, the source gives them in different places.

T1 sequence (Q32ZE1 584-695 V603I/I627V/V629A/D679E): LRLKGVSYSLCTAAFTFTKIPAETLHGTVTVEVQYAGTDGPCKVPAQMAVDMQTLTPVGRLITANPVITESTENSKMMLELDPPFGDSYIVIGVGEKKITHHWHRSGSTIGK

Take `Cc1cc2c(C(C)C)c(O)c(O)c(C=O)c2c(O)c1-c1c(C)cc2c(C(C)C)c(O)c(O)c(C=O)c2c1O` [Gossypol, gossypol]: the IC50 in series [1] (setting [4]) stood at 3.48 µM; in series [1] (Zika virus, Vero C1008, read-out: ZIKV strains IC50, PAN2016) it was 3.78 ± 0.3 µM.

Regarding `C[C@@H]1CC[C@@]2(OC1)O[C@H]1[C@@H](O)[C@H]3[C@@H]4CC[C@H]5C[C@@H](O[C@@H]6O[C@H](CO)[C@H](O[C@@H]7O[C@H](CO)[C@@H](O)[C@H](O[C@@H]8OC[C@@H](O)[C@H](O)[C@H]8O)[C@H]7O[C@@H]7O[C@H](CO)[C@H](O)[C@H](O[C@@H]8O[C@H](CO)[C@@H](O)[C@H](O)[C@H]8O)[C@H]7O)[C@H](O)[C@H]6O)[C@H](O)C[C@]5(C)[C@H]4CC[C@]3(C)[C@H]1[C@@H]2C` [Digitonin, digitonin], the IC50 in series [1] (setting [4]) worked out at 4.31 µM. The “Binding to ZIKV EDIII protein (in words)” value in series [2] was “bound to no ZIKV proteins tested”. The same molecule returned a CC50 in series [3] (3 days, CCK8, Table 5) of 59.02 ± 0.33 µM.

As for `C[C@H]1[C@H]2CC[C@H]3[C@@H]4CC=C5C[C@@H](N(C)C)CC[C@]5(C)[C@H]4CC[C@]23CN1C` [Conessine, conessine], the “Binding to ZIKV EDIII protein (in words)” value in series [2] is given as “bound to no ZIKV proteins tested”.

Turning to `COc1cc(/C=C/C(=O)CC(=O)/C=C/c2ccc(O)c(OC)c2)ccc1O` [Curcumin, curcumin], it took 59.4 ± 1.18 µM to reach half-maximal cytotoxicity in series [3] (3 days, CCK8, Table 5) (CC50).

With `Cc1cc2c(C(C)C)c(O)c(O)c(/C=N/n3c(=O)[nH][nH]c3=O)c2c(O)c1-c1c(C)cc2c(C(C)C)c(O)c(O)c(/C=N/n3c(=O)[nH][nH]c3=O)c2c1O` [ST087010], the IC50 in series [1] (Vero E6 cells, Table 7, gossypol derivatives, read-out: ZIKV strains IC50, PAN2016) was found to be 3.17 ± 0.18 µM. For the same molecule, in series [2] (detected with mAb ZKA64-LALA, read-out: EC50, binding to ZIKV EDIII protein), the EC50 came out at 6.13 µM. The same molecule displayed a CC50 in series [3] (Table 8) of 47.2 µM.
